Data on 5 compounds can be found in publication PMC5234269 (Chemical communications (Cambridge, England), 2015).

In assay [1] the target is D2R (Homo sapiens, UniProt P14416). Type of assay: binding.
In assay [2] the target is D3R (Homo sapiens, UniProt P35462). The experiment in a line: Radioligand binding to D3R with and without Na+.
For assay [3], the system named is Tyr(7.43) to Cys mutant receptor. The following applies: mutant vs wild type; cited from earlier work.

SMILES strings stand for the structures. “And” between values parts separate entries of the source, which are not always exact repeats. Equal entries are not always repeated. Where two headings read alike, the source gives them in different places.

Chain of D2R (P14416 whole entry): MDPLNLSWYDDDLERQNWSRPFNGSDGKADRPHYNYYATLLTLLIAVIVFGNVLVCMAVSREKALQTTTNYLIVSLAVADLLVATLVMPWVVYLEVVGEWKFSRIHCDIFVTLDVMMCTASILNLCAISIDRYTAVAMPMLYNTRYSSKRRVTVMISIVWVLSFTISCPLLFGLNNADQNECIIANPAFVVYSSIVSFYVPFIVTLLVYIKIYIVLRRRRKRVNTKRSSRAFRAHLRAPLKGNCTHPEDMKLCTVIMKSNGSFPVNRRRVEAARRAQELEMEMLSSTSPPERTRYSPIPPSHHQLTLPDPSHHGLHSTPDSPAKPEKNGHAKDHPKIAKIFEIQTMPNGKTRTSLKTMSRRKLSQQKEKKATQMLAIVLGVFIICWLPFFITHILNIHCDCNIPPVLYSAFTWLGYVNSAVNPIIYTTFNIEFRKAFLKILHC
Chain of D3R (P35462 whole entry): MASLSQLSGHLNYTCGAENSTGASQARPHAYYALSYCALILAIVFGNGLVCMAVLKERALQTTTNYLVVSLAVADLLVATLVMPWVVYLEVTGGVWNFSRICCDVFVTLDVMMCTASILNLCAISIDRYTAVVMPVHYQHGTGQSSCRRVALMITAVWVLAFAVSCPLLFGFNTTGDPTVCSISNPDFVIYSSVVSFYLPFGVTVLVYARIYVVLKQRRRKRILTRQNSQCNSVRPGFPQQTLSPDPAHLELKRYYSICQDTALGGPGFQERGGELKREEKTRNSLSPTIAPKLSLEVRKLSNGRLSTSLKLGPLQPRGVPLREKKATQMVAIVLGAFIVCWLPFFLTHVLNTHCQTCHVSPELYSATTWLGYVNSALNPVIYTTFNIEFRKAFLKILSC

As usually defined, the Ki is the dissociation constant of the complex between target and ligand, obtained from inhibition or displacement. Read a high Ki as a looser hold on the target. For `CCc1cc(Cl)c(OC)c(C(=O)NC[C@@H]2CCCN2CC)c1O` [eticlopride], the “increase of affinity for the D2R in the presence of Na+” value in assay [1] was ~ 3 fold. Moreover, the Ki in assay [1] (Ki) was 0.67 nM and 0.27 nM. Moreover, the “effect of Na+ on binding to the D3R” value in assay [2] is given as “increased”.
Regarding `CN(C)CCOC1=Cc2ccccc2Sc2ccc(Cl)cc21` [zotepine], in assay [1] (+Na+ vs -Na+), the “decrease of affinity for the D2R in the presence of Na+” value is on record as ~ 7 fold.
Consider `O=C(CCCN1CCC2(CC1)C(=O)NCN2c1ccccc1)c1ccc(F)cc1` [spiperone], for which, in assay [1], the “effect of presence or absence of Na+ on affinity for the D2R” value was “does not affect”.
As for `CN1CN(c2ccccc2)C2(CCN(CCCC(=O)c3ccc(F)cc3)CC2)C1=O` [methylspiperone], the “decrease of binding by mutation of Tyr(7.43) to Cys” value in assay [3] was 3 fold.
As for `CCN1CCCC1CNC(=O)c1cc(S(N)(=O)=O)ccc1OC` (stereo not drawn) [sulpiride], the “increase of affinity for the D2R in the presence of Na+” value in assay [1] (+Na+ vs -Na+) is ~ 23 fold. Further, the “effect of Na+ on binding to the D3R” value in assay [2] (result in words, Fig. S2) is recorded as “increased”. Besides, in assay [3], the “decrease of binding by mutation of Tyr(7.43) to Cys” value is 185 fold.
